For eight compounds, EC50, IC50 and AC50 results are on record in ChEMBL document CHEMBL1201862, “PubChem BioAssay data set” (2004).

Test [1] can be described thus: Trypanosoma cruzi growth suppression in host cells – NIH3T3 host cells, beta-gal luminescence, confirmation (AID 2044).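 Further: intracellular parasites grown in NIH/3T3 mouse fibroblasts as host cells; luminescent beta-galactosidase reporter signal from transgenic T. cruzi replicating inside host cells; inhibitors lower the luminescence signal.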 It counts as functional, cell-based.
A short description of test [2]: NIH3T3 cell viability loss – ATP luminescence, mouse fibroblasts, counter-screen, dose response (AID 2010).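 Further: cells exposed to compound for about 90 hours before reading.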 It counts as functional, cell-based. (In general: A counterscreen serves to expose hits that act by an unwanted route or on another target.)
In a further test the test system is CHO. The experiment in a line: CHO cell viability loss, potency – luminescence, cytotoxicity control for TLR9-MyD88 binding inhibitor project, dose response (AID 588339).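 Further: CHO cells stably coexpressing TLR9 and MyD88 fusions from primary screen; compound exposure lasted 48 hours before viability readout.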 It counts as functional, cell-based, hamster. Conditions: Cricetulus griseus.
The target of a further test is Paired box protein Pax-8 (Homo sapiens, UniProt Q06710). The experiment in a line: PAX8 transcriptional activity inhibition in RMG-I – RMG-I cells, luciferase, cherry-pick, dose response (AID 687027).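 Further: luciferase reporter driven by Pax8 target thyroperoxidase promoter measured by SteadyGlo luminescence.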 It counts as functional, cell-based.
Another test has as its target T1, Caspase-3 (Homo sapiens, UniProt P42574).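 Further: Dose-response selectivity test against caspase-3 for candidate inhibitors of sentrin-specific proteases (SENPs).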
T1 sequence (P42574 whole entry): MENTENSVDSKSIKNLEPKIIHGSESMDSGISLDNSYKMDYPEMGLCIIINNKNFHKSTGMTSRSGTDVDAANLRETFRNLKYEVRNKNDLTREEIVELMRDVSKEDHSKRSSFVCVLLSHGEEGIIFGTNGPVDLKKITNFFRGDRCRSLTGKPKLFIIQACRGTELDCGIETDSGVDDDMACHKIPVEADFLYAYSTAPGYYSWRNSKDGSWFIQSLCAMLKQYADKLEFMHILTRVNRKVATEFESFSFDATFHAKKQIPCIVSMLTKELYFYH
The format is functional.

For test [3], the target named is T2, Sentrin-specific protease 6 (Homo sapiens, UniProt Q9GZR1).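 Further: Luminescence-based dose-response confirmatory assay of SENP6 inhibition, following up an ultra-high-throughput screen.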
T2 sequence (Q9GZR1 whole entry): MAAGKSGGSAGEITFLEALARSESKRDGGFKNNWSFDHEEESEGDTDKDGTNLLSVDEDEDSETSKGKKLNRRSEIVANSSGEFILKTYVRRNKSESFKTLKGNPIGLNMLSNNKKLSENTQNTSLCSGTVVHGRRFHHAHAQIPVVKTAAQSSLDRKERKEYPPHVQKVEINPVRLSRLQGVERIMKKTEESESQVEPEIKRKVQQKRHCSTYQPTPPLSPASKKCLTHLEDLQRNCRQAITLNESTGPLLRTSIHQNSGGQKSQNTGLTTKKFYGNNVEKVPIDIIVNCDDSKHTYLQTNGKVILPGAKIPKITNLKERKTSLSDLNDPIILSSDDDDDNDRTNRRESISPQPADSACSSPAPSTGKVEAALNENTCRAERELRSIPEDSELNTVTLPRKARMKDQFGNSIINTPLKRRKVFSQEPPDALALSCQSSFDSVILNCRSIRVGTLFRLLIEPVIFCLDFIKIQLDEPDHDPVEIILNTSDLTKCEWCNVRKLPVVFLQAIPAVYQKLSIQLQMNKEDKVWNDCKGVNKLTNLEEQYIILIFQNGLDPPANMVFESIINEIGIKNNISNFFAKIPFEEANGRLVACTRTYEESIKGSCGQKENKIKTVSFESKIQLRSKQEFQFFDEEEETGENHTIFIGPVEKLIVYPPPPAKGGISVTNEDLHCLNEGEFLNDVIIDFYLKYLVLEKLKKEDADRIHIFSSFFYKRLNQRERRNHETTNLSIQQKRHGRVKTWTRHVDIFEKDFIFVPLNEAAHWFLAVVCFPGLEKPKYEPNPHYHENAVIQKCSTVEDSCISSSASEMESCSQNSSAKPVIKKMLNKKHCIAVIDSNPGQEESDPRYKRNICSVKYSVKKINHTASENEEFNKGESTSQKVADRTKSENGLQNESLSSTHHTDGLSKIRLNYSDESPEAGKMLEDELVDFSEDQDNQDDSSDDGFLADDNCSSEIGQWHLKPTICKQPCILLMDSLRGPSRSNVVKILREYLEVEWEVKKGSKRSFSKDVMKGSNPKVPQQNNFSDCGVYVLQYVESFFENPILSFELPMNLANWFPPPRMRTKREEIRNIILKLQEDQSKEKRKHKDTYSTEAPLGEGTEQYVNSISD
It counts as functional.

The nature of test [4]: luciferase reporter signal suppression in cells – H4 neuroglioma cells, luminescence, dose response (AID 1990). It counts as functional, cell-based.
The nature of test [5]: alpha-synuclein stem-loop luciferase translation blockers – H4 neuroglioma cells, luminescence, confirmation (AID 1988). It counts as functional, cell-based.
Test [6] has as its system Streptococcus sp. 'group A'. The experiment in a line: Streptococcus pyogenes SK(-)GAS viability under kanamycin – luminescence, BacTiterGlo, confirmation, counter-screen for streptokinase expression inhibitor project, dose response (AID 1900). The format is functional, organism-based.
In a further test the target is T3, Streptokinase A (Streptococcus pyogenes serotype M1, UniProt P10520).
T3 sequence (P10520 whole entry): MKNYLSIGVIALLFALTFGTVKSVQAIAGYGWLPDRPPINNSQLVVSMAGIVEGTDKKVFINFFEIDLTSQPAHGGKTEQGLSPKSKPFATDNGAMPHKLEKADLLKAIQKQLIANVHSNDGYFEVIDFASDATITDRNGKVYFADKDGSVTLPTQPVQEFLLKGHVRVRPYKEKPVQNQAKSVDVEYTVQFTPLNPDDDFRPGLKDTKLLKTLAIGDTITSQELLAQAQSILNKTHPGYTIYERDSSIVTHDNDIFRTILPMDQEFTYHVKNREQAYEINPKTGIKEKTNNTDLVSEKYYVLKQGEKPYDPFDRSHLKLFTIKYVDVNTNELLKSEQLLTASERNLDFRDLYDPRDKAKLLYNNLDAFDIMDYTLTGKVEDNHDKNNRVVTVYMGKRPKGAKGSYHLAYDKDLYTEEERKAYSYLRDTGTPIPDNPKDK
Description: viability-normalized secreted streptokinase activity reduction – plasminogen activation absorbance, OD405, dose response (AID 1914).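 Further: secreted streptokinase activity via plasminogen activation per viability signal from cell pellet.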 It counts as functional, Streptococcus pyogenes M1 GAS.

A further test relates to Streptococcus. The experiment in a line: GAS UMAA2166 growth inhibition – luminescence, BacTiterGlo, counter-screen for streptokinase expression inhibitor project, dose response (AID 1915).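 Further: potency for reduction of bacterial viability or growth.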 The format is functional, organism-based.
Test [7] concerns BJ. The experiment in a line: BJ-TERT fibroblast viability loss – cell-based, RAS-independent, luminescence, dose response (AID 1933). The format is functional. Conditions: Homo sapiens.
The test system of test [8] is BJ. Description: BJ-TERT-LT-ST fibroblast viability loss – cell-based, RAS-independent, luminescence, dose response (AID 1935).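 Further: BJ fibroblasts immortalized with TERT plus LT and ST oncogenes.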 The format is functional. The conditions noted are these: Homo sapiens.
Test [9] in a line: DRD fibroblast viability loss – cell-based, non-viral oncogenic, luminescence, dose response (AID 1934). Conditions: Homo sapiens. The format is functional.
Test [10] has as its target T4, Tyrosyl-DNA phosphodiesterase 2 (Homo sapiens, UniProt O95551).
T4 sequence (O95551 whole entry): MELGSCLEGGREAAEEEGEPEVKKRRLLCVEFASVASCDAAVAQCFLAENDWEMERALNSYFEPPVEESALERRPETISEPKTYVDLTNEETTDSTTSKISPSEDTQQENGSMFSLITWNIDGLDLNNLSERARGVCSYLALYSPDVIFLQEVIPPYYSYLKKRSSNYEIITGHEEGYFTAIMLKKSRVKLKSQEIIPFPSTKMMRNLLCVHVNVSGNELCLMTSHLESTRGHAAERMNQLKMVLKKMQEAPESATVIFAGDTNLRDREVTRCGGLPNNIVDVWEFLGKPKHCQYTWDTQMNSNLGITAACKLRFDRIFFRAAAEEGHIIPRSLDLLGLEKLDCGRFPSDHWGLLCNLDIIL
The experiment in a line: potency against TDP2 phosphodiesterase activity – biochemical, epi absorbance, IC50, dose response (AID 743297).

Another test addresses SUMO-activating enzyme (Homo sapiens, UniProt Q9UBT2). Description: blockers of SAE1/SAE2–UBC9 SUMO transfer – biochemical, HTRF, uHTS, primary screen (AID 2006). It counts as protein-complex assay.

Activity calls are given as the source filed them. For most assays here, no stated cut-off is given here; in the data, actives have a measured EC50 and inactives only a lower limit.

Chain of SUMO-activating enzyme (Q9UBE0 whole entry): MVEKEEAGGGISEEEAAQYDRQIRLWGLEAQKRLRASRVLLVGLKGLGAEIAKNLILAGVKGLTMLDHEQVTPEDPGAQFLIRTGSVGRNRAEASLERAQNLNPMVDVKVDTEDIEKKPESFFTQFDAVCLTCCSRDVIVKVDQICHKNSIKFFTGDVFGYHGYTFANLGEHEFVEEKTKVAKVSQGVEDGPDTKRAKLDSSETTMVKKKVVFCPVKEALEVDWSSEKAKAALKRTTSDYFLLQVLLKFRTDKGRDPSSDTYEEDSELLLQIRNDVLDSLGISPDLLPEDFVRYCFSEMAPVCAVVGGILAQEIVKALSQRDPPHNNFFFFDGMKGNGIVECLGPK
Chain of SUMO-activating enzyme (Q9UBT2 whole entry): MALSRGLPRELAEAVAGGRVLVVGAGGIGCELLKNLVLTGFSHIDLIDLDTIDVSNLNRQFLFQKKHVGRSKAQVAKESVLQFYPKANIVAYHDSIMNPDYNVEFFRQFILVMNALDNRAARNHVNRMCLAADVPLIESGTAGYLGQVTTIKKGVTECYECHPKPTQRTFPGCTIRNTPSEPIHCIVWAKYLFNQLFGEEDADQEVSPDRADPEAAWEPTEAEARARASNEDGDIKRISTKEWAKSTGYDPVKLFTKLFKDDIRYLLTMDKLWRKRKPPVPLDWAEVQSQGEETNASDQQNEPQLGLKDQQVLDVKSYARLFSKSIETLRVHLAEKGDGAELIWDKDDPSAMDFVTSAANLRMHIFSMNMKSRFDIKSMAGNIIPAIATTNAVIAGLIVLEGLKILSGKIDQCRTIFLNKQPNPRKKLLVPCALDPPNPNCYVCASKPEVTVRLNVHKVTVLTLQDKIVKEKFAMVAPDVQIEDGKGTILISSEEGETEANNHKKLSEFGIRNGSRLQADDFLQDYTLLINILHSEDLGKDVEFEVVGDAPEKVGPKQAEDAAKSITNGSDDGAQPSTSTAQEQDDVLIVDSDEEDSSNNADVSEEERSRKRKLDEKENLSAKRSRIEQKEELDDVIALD
Chain of Paired box protein Pax-8 (Q06710 whole entry): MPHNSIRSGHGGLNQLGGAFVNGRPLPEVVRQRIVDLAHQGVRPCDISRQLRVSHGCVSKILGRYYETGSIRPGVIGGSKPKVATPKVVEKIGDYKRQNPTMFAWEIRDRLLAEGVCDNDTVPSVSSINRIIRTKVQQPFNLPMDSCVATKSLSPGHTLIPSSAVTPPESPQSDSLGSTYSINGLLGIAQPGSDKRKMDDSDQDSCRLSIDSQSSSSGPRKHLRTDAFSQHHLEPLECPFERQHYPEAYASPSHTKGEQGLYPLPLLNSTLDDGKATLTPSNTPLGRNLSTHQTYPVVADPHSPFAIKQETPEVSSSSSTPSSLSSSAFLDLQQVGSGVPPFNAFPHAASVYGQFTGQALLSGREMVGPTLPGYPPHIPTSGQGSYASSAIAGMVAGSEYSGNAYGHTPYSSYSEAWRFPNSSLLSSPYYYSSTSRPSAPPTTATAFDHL

As a reminder, the EC50 is the concentration that produces a half-maximal response. For orientation: IC50 means the midpoint of a concentration-inhibition curve. By AC50 is commonly meant the midpoint of the concentration-response curve, whichever way the signal moves. For the compound `CCC(=O)OCCNc1cc(Sc2nccn2C)c2nonc2c1[N+](=O)[O-]`, the EC50 in test [1] is 1.97 µM (active); in [2], 3.62 µM (active). The IC50 in the test on CHO was 2.38 µM (active). At Paired box protein Pax-8, the AC50 is 7.53 µM (active).

As to `CCc1ccc(OCC(=O)N/N=C2\CC(=O)c3ccccc32)cc1`, the values for the IC50 (on Caspase-3; in test [3]) were 3.7 µM (active) and 4.06 µM (active), respectively.

For the compound `O=C1c2cc(F)ccc2-n2c1nc1ccccc1c2=O`, the EC50 in [4] is 10 µM (inconclusive); in test [5], 8.84 µM (active).

Turning to `CCOC(=O)C1=C(c2ccc(OC)cc2)C(=O)c2ccccc2C1=O`, the results for the EC50 (in [6]; at Streptokinase A; in the test with Streptococcus) were 1.51 µM (active), > 150 µM (not active) and 6.2 µM (active), respectively.

For `O=C1C(=O)c2ccccc2-c2ccccc21` [9,10-PHENANTHRENEQUINONE], the EC50 in test [6] was 1.33 µM (active); in the test with BJ [7], 1.96 µM (active); with BJ [8], 1.63 µM (inconclusive); in [9] it was 4.95 µM (inconclusive); in the test with Streptococcus, 2.3 µM (active). Further, the IC50 in test [10] is 1.91 µM (active).

`COCCCNC(=O)c1ccc2c3c(onc13)-c1ccccc1C2=O`: the EC50 is 8.03 µM (inconclusive) with BJ [7], 7.47 µM (active) with BJ [8] and 8.59 µM (active) in [9].

Take `O=C1C=C(N(CCO)Cc2ccccc2)c2ccccc2C1=O`: the EC50 was > 30 µM (not active) in test [1] and 5.31 µM (active) in test [2].

For the compound `CCCCn1c(NC(=O)c2ccccc2Cl)c(C#N)c2nc3ccccc3nc21`, the IC50 on SUMO-activating enzyme is 2.82 µM (active); at Caspase-3 it was 12.2 µM (active); in [3], 0.986 µM (active); in test [10], > 4.76 µM (active).
